One assay concerns the target PDGFRα D842V (Homo sapiens (Human), UniProt P16234, D842V). The experiment in a line: PDGFRα D842V biochemical enzymatic activity assay (EZReader 2 mobility shift). The settings on record: at APPKM for ATP, 25 μM ATP, 90 minutes. An excerpt:
(§1) PDGFRα and KIT enzymatic activity was monitored using the Perkin Elmer electrophoretic mobility shift technology platform, the EZReader 2.
(§2) Within the linear, steady-state phase of the kinase enzymatic reaction, the mixed pool of phosphorylated (product) and non-phosphorylated (substrate) peptides was passed through the microfluidic system of the PerkinElmer EZ Reader 2, under an applied electric potential difference. The presence of the phosphate group on the product peptide provided a difference in mass and charge between that of the substrate peptide, resulting in a separation of the substrate and product pools in the sample (Perrin et al., Expert Opin Drug Discovery 2010 Jan. 5(1):51-63).
(§3) As the product and substrate peptide mixture passes the lasers within the instrument, these pools are detected (λex=488 nm, λem=568 nm) and resolved as separate peaks. The ratio between these peaks reflects the activity of the compound at that concentration, in that well, under those conditions.
Inhibition of KIT (D816V) PDGFRα (D842V) Mutant Biochemical Enzymatic Activity
(§4) All test articles were dissolved in 100% DMSO at a stock concentration of 10 mM. A 100×, 10-point, 4-fold serial dilution of all test compounds was created in 100% DMSO, starting at a relevant concentration, usually 1 mM. A volume of 0.130 μL of each concentration was transferred to the relevant well of a 384-well assay plate (Greiner 781 201) using a TTPLabtech Mosquito nano-liter dispenser. Using the Multidrop, the remaining constituents of the reaction were then added to the 0.130 μL of compound as follows:
The reaction was stopped by the addition of 70 μl of Stop buffer (100 mM HEPES pH 7.5, 0.015% Brij 35, 35 mM EDTA and 0.2% of Coating Reagent 3, Caliper Lifesciences). The plate was read on a Caliper EZReader 2.

A further assay relates to UT-7 cells. Briefly: UT-7 cell proliferation with SCF stimulation as a measure of wild-type KIT activity (CellTiter-Glo). The settings on record: SCF-stimulated UT-7 cell proliferation. It counts as cell-based, human. From the text:
UT-7 Cell Proliferation with SCF Stimulation Assay as a Measure of Wild-Type KIT Activity
UT-7 cells are human megakaryoblastic leukemia cell lines that can be grown in culture with dependence on granulocyte macrophage colony stimulating factor (GM-CSF) or stem cell factor (SCF). UT-7 cells respond to SCF stimulation by activation of the KIT receptor tyrosine kinase and subsequent downstream signaling that can support cell growth and proliferation (Kuriu et al, 1999; Komatsu et al, 1991; Sasaki et al, 1995). Test compounds were assayed for their ability to inhibit SCF-stimulated proliferation of UT-7 cells.
Inhibition of SCF-stimulated UT-7 cell proliferation was assessed using the CellTiter-Glo assay that quantifies the amount of adenosine triphosphate (ATP) present, which is a readout of metabolically active cells and is directly proportional to the number of viable cells in culture. The ability of test compounds to inhibit SCF-stimulated UT-7 cell proliferation was determined using a 10-point dose curve ranging from 25 μM to 95.4 pM of test compound.
UT-7 cells were maintained in IMDM supplemented with 10% FBS, 5 ng/mL GM-CSF and 100 units/mL Penicillin-Streptomycin and grown in a 37° C. humidified tissue culture incubator. UT-7 cells were washed once with serum free, GM-CSF free IMDM. Cells were then resuspended in IMDM containing 4% FBS and 50 ng/mL SCF and seeded at 2500 cells per well in a volume of 22 μL in a 384-well microplate. A 10-point dose concentration series of test compounds (25.0 μM to 95.4 pM) were then added to the cells in a volume of 3.1 μL to each well (0.25% DMSO final concentration) and placed in a tissue culture incubator (5% CO2, 37° C.) for 72 hours. After 3-days with test compound, CellTiter-Glo reagent was prepared fresh and 25 μL of reagent was added to each well. The plate was mixed by shaking for 10 minutes at RT at 300 rpm on a plate shaker. The plate was read on an EnVision plate reader using the Ultra Sensitive Luminescence protocol for a 384-well plate.
For orientation: ATP-based viability assays read luminescence as a measure of living cells.

Assay [1] concerns the target KIT D816V (Homo sapiens (Human), UniProt P10721, D816V). Briefly: KIT D816V biochemical enzymatic activity assay (EZReader 2 mobility shift). The conditions noted are these: at APPKM for ATP, 20 μM ATP, 60 minutes.
From the text: as §1, §2, §3, §4
The plate was read on a Caliper EZReader 2.

For assay [2], the target named is KIT D816V (Homo sapiens (Human), UniProt P10721, D816V/V560G). The experiment in a line: HMC1.2 autophosphorylation assay (phospho-Y719 KIT AlphaLISA). It counts as cell-based. The settings on record: HMC1.2 cell line, KIT autophosphorylation at tyrosine 719, 90 minutes; read-out: KIT (P-KIT HMC1.2 (nM)). As to the method:
10,000 HMC1.2 cells were incubated in 22 μL culture media (phenol-red free IMDM, no serum) in each well of a 384-well plate and serum starved overnight in a tissue culture incubator (5% CO2, 37° C.). […] 10 μL of 100 μg/mL streptavidin donor beads (Perkin Elmer) were added to each well, blocked from light with solid black adhesive and shaken at 300 rpm at room temperature for 2 hours. Fluorescence signal was obtained on Envision (Perkin Elmer) by AlphaScreen 384 well HTS protocol.
On the technique in general: Bead proximity is the source of the signal in Alpha formats.

The next assay addresses wt KIT kinase (Homo sapiens (Human), UniProt P10721). The experiment in a line: Wild-type KIT binding assay (Kd determination, phage-tagged kinase, qPCR). As to the method: Kd Determinations. For most assays, including wt KIT kinase, kinase-tagged T7 phage strains were prepared in an E. coli host derived from the BL21 strain. E. coli were grown to log-phase and infected with T7 phage and incubated with shaking at 32° C. until lysis. […] The liganded beads were blocked with excess biotin and washed with blocking buffer (SeaBlock (Pierce), 1% BSA, 0.05% Tween 20, 1 mM DTT) to remove unbound ligand and to reduce non-specific binding. […] Test compounds were prepared as 111× stocks in 100% DMSO. Kds were determined using an 11-point 3-fold compound dilution series with three DMSO control points. […] The compounds were then diluted directly into the assays such that the final concentration of DMSO was 0.9%. All reactions were performed in polypropylene 384-well plate. Each was a final volume of 0.02 ml. […] The kinase concentration in the eluates was measured by qPCR.
Binding Constants (Kds). Binding constants (Kds) were calculated with a standard dose-response curve using the Hill equation: Response=Background+Signal−Background 1+(KdHill Slope/DoseHill Slope). The Hill Slope was set to −1. Curves were fitted using a non-linear least square fit with the Levenberg-Marquardt algorithm.
(In general: Quantitative PCR measures a nucleic acid by following its amplification.)

Bounds are passed on as bounds.

Sequence of PDGFRα D842V (P16234 24-1089 D842V): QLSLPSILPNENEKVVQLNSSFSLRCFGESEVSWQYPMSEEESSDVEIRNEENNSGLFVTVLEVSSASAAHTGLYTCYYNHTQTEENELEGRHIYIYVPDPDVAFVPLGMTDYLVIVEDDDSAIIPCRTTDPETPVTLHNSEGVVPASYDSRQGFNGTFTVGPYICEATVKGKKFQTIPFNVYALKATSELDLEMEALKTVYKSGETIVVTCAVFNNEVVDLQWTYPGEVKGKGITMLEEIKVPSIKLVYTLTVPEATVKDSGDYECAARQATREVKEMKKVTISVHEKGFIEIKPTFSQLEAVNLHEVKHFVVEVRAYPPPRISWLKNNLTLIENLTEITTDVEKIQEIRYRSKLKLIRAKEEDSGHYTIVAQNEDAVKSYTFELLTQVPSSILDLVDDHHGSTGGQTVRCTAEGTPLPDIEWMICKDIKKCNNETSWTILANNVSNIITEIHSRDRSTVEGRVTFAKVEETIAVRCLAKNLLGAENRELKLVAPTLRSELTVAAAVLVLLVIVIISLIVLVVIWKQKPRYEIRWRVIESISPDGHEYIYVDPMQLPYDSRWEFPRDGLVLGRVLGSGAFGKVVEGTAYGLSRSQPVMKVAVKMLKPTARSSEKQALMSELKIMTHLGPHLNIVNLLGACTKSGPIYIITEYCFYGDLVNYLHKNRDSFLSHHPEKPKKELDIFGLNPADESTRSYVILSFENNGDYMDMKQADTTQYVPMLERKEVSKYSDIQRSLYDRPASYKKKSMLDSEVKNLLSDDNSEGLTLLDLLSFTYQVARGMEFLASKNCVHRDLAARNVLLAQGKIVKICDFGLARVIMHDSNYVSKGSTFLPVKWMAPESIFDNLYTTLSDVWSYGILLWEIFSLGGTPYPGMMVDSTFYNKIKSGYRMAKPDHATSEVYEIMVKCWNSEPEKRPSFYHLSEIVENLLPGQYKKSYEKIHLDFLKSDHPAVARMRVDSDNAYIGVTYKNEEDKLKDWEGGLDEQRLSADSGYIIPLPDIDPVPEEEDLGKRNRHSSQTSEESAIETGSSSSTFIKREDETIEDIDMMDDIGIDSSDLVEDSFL
Sequence of KIT D816V (Homo sapiens (Human), UniProt P10721, D816V) (P10721 26-976 D816V): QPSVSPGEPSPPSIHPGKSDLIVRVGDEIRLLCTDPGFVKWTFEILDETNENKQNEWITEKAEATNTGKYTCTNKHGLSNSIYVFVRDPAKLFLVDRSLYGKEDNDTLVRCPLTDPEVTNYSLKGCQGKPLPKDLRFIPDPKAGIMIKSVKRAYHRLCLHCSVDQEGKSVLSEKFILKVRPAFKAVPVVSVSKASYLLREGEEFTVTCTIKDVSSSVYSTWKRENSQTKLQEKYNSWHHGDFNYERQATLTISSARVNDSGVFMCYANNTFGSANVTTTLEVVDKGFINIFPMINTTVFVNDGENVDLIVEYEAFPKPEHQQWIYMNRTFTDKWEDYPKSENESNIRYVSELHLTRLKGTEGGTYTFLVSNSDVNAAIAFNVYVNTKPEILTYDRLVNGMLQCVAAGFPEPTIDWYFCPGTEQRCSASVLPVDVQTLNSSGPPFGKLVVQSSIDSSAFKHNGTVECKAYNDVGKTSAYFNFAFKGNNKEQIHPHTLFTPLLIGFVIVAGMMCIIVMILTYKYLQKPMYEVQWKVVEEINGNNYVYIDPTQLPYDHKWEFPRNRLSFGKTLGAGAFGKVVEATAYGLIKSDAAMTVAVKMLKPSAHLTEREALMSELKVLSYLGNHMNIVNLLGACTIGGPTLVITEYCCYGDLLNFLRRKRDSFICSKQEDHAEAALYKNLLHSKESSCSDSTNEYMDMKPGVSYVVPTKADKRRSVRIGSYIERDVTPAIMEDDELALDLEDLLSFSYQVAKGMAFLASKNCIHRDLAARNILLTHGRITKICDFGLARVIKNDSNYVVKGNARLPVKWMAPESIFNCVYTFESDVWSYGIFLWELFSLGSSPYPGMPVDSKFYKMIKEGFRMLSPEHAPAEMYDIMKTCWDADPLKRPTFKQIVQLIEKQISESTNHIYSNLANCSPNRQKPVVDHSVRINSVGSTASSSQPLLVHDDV
Sequence of wt KIT kinase (P10721 26-976): as the sequence (P10721 26-976 D816V) above, with V791D counted along it
Sequence of KIT D816V (Homo sapiens (Human), UniProt P10721, D816V/V560G) (P10721 26-976 V560G/D816V): as the sequence (P10721 26-976 D816V) above, with V535G counted along it

With `C[C@](N)(c1ccc(F)cc1)c1cnc(N2CCN(c3ncnn4cc(-c5cnn(C6COC6)c5)cc34)CC2)nc1` [Compound 7, (S)-1-(4-Fluorophenyl)-1-(2-(4-(6-(1-(oxetan-3-yl)-1H-pyrazol-4-yl)pyrrolo[2,1-f][1,2,4]triazin-4-yl)piperazin-1-yl)pyrimidin-5-yl)ethan-1-amine], the IC50 on PDGFRα D842V is no more than 0.3 nM; with UT-7 cells (Homo sapiens, UT7, 72 h), 90.1 to 150 nM.
In the assay on UT-7 cells (Homo sapiens, UT7, 72 h), `C[C@@H](CO)n1cc(-c2cc3c(N4CCN(c5ncc([C@@](C)(N)c6ccc(F)cc6)cn5)CC4)ncnn3c2)cn1` [Compound 6, (S)-2-(4-(4-(4-(5-((S)-1-amino-1-(4-fluorophenyl)ethyl)pyrimidin-2-yl)piperazin-1-yl)pyrrolo[2,1-f][1,2,4]triazin-6-yl)-1H-pyrazol-1-yl)propan-1-ol] registered an IC50 of less than 90 nM.
`CC(C)(CO)n1cc(-c2cc3c(N4CCN(c5ncc([C@@](C)(N)c6ccc(F)cc6)cn5)CC4)ncnn3c2)cn1` [Compound 2, (S)-2-(4-(4-(4-(5-(1-amino-1-(4-fluorophenyl)ethyl)pyrimidin-2-yl)piperazin-1-yl)pyrrolo[2,1-f][1,2,4]triazin-6-yl)-1H-pyrazol-1-yl)-2-methylpropan-1-ol]: the IC50 in the assay on UT-7 cells (Homo sapiens, UT7, 72 h) was 150 to 200 nM.
Turning to `C[C@H](O)Cn1cc(-c2cc3c(N4CCN(c5ncc([C@@](C)(N)c6ccc(F)cc6)cn5)CC4)ncnn3c2)cn1` [Compound 9], the IC50 on PDGFRα D842V was no more than 0.3 nM; in the assay with UT-7 cells (Homo sapiens, UT7, 72 h), 90.1 to 150 nM.
For `C[C@](N)(c1ccc(F)cc1)c1cnc(N2CCN(c3ncnn4cc(-c5cnn([C@H]6COC[C@@H]6O)c5)cc34)CC2)nc1` (single isomer, unassigned) [Compound 18], the IC50 is no more than 0.3 nM on KIT D816V [1]; no more than 0.3 nM at PDGFRα D842V; less than 4.5 nM at KIT D816V [2]; 90.1 to 150 nM in the assay on UT-7 cells (Homo sapiens, UT7, 72 h). Moreover, the Kd (commonly the concentration at which binding is half-saturated) on wt KIT kinase was less than 10 nM.
`C[C@](N)(c1ccc(F)cc1)c1cnc(N2CCN(c3ncnn4cc(-c5cnn(C6(CO)CC6)c5)cc34)CC2)nc1` [Compound 13, (S)-(1-(4-(4-(4-(5-(1-Amino-1-(4-fluorophenyl)ethyl)pyrimidin-2-yl)piperazin-1-yl)pyrrolo[2,1-f][1,2,4]triazin-6-yl)-1H-pyrazol-1-yl)cyclopropyl)methanol]: the IC50 on PDGFRα D842V was no more than 0.3 nM; in the assay on UT-7 cells (Homo sapiens, UT7, 72 h) it was 90.1 to 150 nM.
Regarding `C[C@](N)(c1ccc(F)cc1)c1cnc(N2CCN(c3ncnn4cc(-c5cnn(CC6(O)CC6)c5)cc34)CC2)nc1` [Compound 12, (S)-1-((4-(4-(4-(5-(1-Amino-1-(4-fluorophenyl)ethyl)pyrimidin-2-yl)piperazin-1-yl)pyrrolo[2,1-f][1,2,4]triazin-6-yl)-1H-pyrazol-1-yl)methyl)cyclopropan-1-ol], the IC50 at PDGFRα D842V was no more than 0.3 nM; in the assay on UT-7 cells (Homo sapiens, UT7, 72 h) it was 90.1 to 150 nM.
Regarding `C[C@](N)(c1ccc(F)cc1)c1cnc(N2CCN(c3ncnn4cc(-c5cnn([C@H]6COC[C@H]6O)c5)cc34)CC2)nc1` (single isomer, unassigned) [Compound 20], the IC50 at KIT D816V [1] is no more than 0.3 nM; at PDGFRα D842V, no more than 0.3 nM; on KIT D816V [2], less than 4.5 nM; in the assay with UT-7 cells (Homo sapiens, UT7, 72 h), 90.1 to 150 nM. The compound also had a Kd on wt KIT kinase of less than 10 nM.
For `CC(C)(O)Cn1cc(-c2cc3c(N4CCN(c5ncc([C@@](C)(N)c6ccc(F)cc6)cn5)CC4)ncnn3c2)cn1` [Compound 1, (S)-1-(4-(4-(4-(5-(1-Amino-1-(4-fluorophenyl)ethyl)pyrimidin-2-yl)piperazin-1-yl)pyrrolo[2,1-f][1,2,4]triazin-6-yl)-1H-pyrazol-1-yl)-2-methylpropan-2-ol], the IC50 with UT-7 cells (Homo sapiens, UT7, 72 h) fell in the range of 150 to 200 nM.
On to `C[C@](N)(c1ccc(F)cc1)c1cnc(N2CCN(c3ncnn4cc(-c5cnn([C@@H]6COC[C@@H]6O)c5)cc34)CC2)nc1` (single isomer, unassigned) [Compound 17], for which the IC50 on KIT D816V [1] was 0.31 to 1 nM; at PDGFRα D842V, no more than 0.3 nM; on KIT D816V [2], 4.6 to 10 nM; in the assay on UT-7 cells (Homo sapiens, UT7, 72 h) it was 90.1 to 150 nM. The same compound returned a Kd on wt KIT kinase of less than 10 nM.
Consider `C[C@](N)(c1ccc(F)cc1)c1cnc(N2CCN(c3ncnn4cc(-c5cnn([C@H]6C[C@H](O)C6)c5)cc34)CC2)nc1` [Compound 11, trans-3-{4-[4-(4-{5-[1-Amino-1-(4-fluoro-phenyl)-ethyl]-pyrimidin-2-yl}-piperazin-1-yl)-pyrrolo[2,1-f][1,2,4]triazin-6-yl]-pyrazol-1-yl}-cyclobutanol], for which the IC50 was no more than 0.3 nM at KIT D816V [1], no more than 0.3 nM on PDGFRα D842V, 4.6 to 10 nM on KIT D816V [2] and 90.1 to 150 nM in the assay with UT-7 cells (72 hours). The same compound showed a Kd on wt KIT kinase of less than 10 nM.
On to `C[C@H](CO)n1cc(-c2cc3c(N4CCN(c5ncc([C@@](C)(N)c6ccc(F)cc6)cn5)CC4)ncnn3c2)cn1` [Compound 5, (R)-2-(4-(4-(4-(5-((S)-1-Amino-1-(4-fluorophenyl)ethyl)pyrimidin-2-yl)piperazin-1-yl)pyrrolo[2,1-f][1,2,4]triazin-6-yl)-1H-pyrazol-1-yl)propan-1-ol], for which the IC50 in the assay on UT-7 cells (Homo sapiens, UT7, 72 h) was less than 90 nM.
`C[C@@H](O)Cn1cc(-c2cc3c(N4CCN(c5ncc([C@@](C)(N)c6ccc(F)cc6)cn5)CC4)ncnn3c2)cn1` [Compound 3, (R)1-{4-[4-(4-{5-[(S)-1-Amino-1-(4-fluoro-phenyl)-ethyl]-pyrimidin-2-yl}-piperazin-1-yl)-pyrrolo[2,1-f][1,2,4]triazin-6-yl]-pyrazol-1-yl}-propan-2-ol] yielded an IC50 with UT-7 cells (Homo sapiens, UT7, 72 h) of less than 90 nM.
Regarding `C[C@](N)(c1ccc(F)cc1)c1cnc(N2CCN(c3ncnn4cc(-c5cnn([C@@H]6CC[C@H]6O)c5)cc34)CC2)nc1` (single isomer, unassigned) [Compound 22], the IC50 is no more than 0.3 nM on KIT D816V [1]; no more than 0.3 nM on PDGFRα D842V; less than 4.5 nM on KIT D816V [2]; 90.1 to 150 nM with UT-7 cells (Homo sapiens, UT7, 72 h). The Kd at wt KIT kinase is less than 10 nM.

Values taken from patent US10829493B2, “Compositions and methods for treating KIT- and PDGFRA-mediated diseases” (Blueprint Medicines Corporation, priority 2019, dated 2020).
